# Reference: US20220168325A1, “METHODS TO PROMOTE CEREBRAL BLOOD FLOW IN THE BRAIN” (THE UNIVERSITY OF VERMONT, priority 2019, published 2022)
# Structures can show the parent of a compound that is named as a salt. Where two headings read alike, the source gives them in different places.
# B1: TIMP3: recombinant soluble TIMP3, matrix metalloproteinase inhibitor (protein, UniProt P35625 24-211, looked up)
# Metalloproteinase inhibitor 3: CTCSPSHPQDAFCNSDIVIRAKVVGKKLVKEGPFGTLVYTIKQMKMYRGFTKMPHVQYIHTEASESLCGLKLEVNKYQYLLTGRVYDGKMYTGLCNFVERWDQLTLSQRKGLNYRYHLGCNCKIKSCYYLPCFVTSKNECLWTDMLSNFGYPGYQSKHYACIRQKGGYCSWYRGWAPPDKSIINATDP
# Key:
# [1] = system: capillary-to-arteriole electrical signaling; experiment: Ex vivo CaPA preparation from transgenic mice: arteriolar tone and dilation to capillary 10 mM K+; settings: for Arteriolar dilation in response to capillary stimulation with 10 mM K+: 1 mM 4-AP, 30 ng/mL HB-EGF bath, or exogenous PIP2 bath; for Myogenic tone of arteriolar segment: 1 mM 4-AP or 30 ng/mL HB-EGF
# Kir2.1 channel [2] = molecular target: T1, Kir2.1 channel (Mus musculus, UniProt P35561); experiment: Patch-clamp Ba2+-sensitive Kir2.1 current in cECs from transgenic mice; assay type: cell-based, TgNotch3^WT and TgNotch3^R169C mice; design: freshly isolated capillary endothelial cells from TgNotch3^WT and TgNotch3^R169C brains; endogenous in cells; host or cells: freshly isolated brain capillary endothelial cells from TgNotch3^WT and TgNotch3^R169C mice (FVB/N background); settings: HB-EGF (30 ng/ml, 20 minutes)
# T1 sequence (P35561 1-428): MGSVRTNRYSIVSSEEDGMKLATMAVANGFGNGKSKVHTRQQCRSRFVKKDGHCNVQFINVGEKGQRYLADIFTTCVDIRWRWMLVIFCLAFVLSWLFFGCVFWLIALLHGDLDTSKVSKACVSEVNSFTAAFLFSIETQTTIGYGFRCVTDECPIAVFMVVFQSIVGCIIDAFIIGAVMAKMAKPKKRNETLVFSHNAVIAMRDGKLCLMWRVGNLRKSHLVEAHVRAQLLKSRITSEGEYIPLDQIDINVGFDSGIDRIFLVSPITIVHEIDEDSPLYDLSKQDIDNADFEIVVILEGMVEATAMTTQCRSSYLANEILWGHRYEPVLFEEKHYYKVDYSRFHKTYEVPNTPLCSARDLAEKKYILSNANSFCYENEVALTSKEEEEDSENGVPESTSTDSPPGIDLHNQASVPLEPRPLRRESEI
# functional hyperemia = experiment: Whisker stimulation-induced functional hyperemia in vivo (laser Doppler flowmetry, somatosensory cortex); design: species or system TgNotch3^WT and TgNotch3^R169C mice; settings: for CBF responses to whisker stimulation: 20 nM HB-EGF perfused over cranial window
# Kir2.1 channel [3] = molecular target: T1, Kir2.1 channel; experiment: Patch-clamp recording of Kir2.1 currents in freshly isolated brain capillary endothelial cells (cECs); settings: for Effect of simultaneous PKC and IP3R/Ca2+ block on PGE2-mediated suppression of Kir2.1 currents: 1 μM Gö6976 + 30 μM CPA bath-applied + 5.4 mM BAPTA dialyzed together; for Effect of simultaneous PKC and IP3R/Ca2+ block on PGE2-mediated suppression of Kir2.1 currents / Effect on PGE2-induced reduction of Kir2.1 current: PGE2 2 μM, 0 mM Mg-ATP; for Effect on PGE2-induced reduction of Kir2.1 current: diC8-PIP2 10 μM dialyzed, U73122 10 μM bath, Gö6976 1 μM bath, BAPTA 5.4 mM dialyzed; for Decline of Kir2.1 currents over 15 min: in pipette: 1 mM Mg-ATP, 1 mM Mg-ATP-γ-S, or 10 μM diC8-PIP2 with 0 mM Mg-ATP
# [4] = system: K+-evoked capillary hyperemia; experiment: In vivo two-photon imaging of K+-evoked capillary RBC flux through cranial window; design: species or system C57BL/6J mouse; settings: 0-mM Ca2+ solution containing 200 μM diltiazem on cranial surface, end of experiment
# [5] = cECs dialyzed with 1 mM Mg-ATP, PKC, PKG, PKA inhibitors
# [6] = dialyzed cECs, 1 mM Mg-ATP, 1 μM Gö6976, 10 μM Rp-8-Br-PET-cGMPS, 1 μM H-89
# [7] = conventional whole-cell, dialyzed cECs
molecule,measurement,setting,value
"HB-EGF: heparin-binding epidermal growth factor-like growth factor, EGFR ligand",Upstream arteriole response to 10 mM K+ on capillaries,"[1]; CaPA from endothelial specific Kir2.1^-/- (Kir channel deficient) mice, HB-EGF or soluble PIP2 present",without effect
same,Time after restoration of myogenic tone until dilation to capillary K+ appeared,"[1]; HB-EGF 30 ng/mL, TgNotch3^R169C CaPA",17 ± 0.5 min
same,Arteriolar dilation in response to capillary stimulation with 10 mM K+,[1]; TgNotch3^R169C CaPA,gradually increased to the amplitude observed in preparations from the control group
same,Myogenic tone of arteriolar segment,[1]; TgNotch3^R169C,also restored myogenic tone
same,Arteriolar segment diameter,"[1]; bath HB-EGF 30 ng/mL, TgNotch3^R169C CaPA",rapid and sustained constriction
same,Kir2.1 current density,Kir2.1 channel [2]; TgNotch3^R169C cECs,restored it
same,Kir2.1 current density,Kir2.1 channel [2]; TgNotch3^WT cECs,had no effect
same,CBF responses to whisker stimulation,functional hyperemia; CADASIL model (TgNotch3^R169C),restored CBF responses to whisker stimulation in CADASIL model to control levels
same,CBF responses to whisker stimulation,functional hyperemia; control mice (TgNotch3^WT),no significant effect
"Cn1c2ccccc2c2c3c(c4c5ccccc5n(CCC#N)c4c21)CNC3=O [Gö6976, 12-(2-cyanoethyl)-6,7,12,13-tetrahydro-13-methyl-5-oxo-5H-indolo(2,3-a)pyrrolo(3,4-c)-carbazole]",Effect of simultaneous PKC and IP3R/Ca2+ block on PGE2-mediated suppression of Kir2.1 currents,Kir2.1 channel [3],lack of an effect
same,Effect on peak Kir2.1 current densities at -140 mV,Kir2.1 channel [3]; [5],absence of an effect
same,Effect on PGE2-induced reduction of Kir2.1 current,Kir2.1 channel [3]; dialyzed cECs,no effect
same,Effect on Mg-ATP-mediated maintenance of Kir2.1 currents over 15 min,Kir2.1 channel [3]; [6],unaltered
[Ba+2] [Ba^2+],K+-induced upstream vasodilation,"[1]; Ba2+, TgNotch3^R169C, Timp3^+/- mice",completely abolished
same,Effect on CBF responses to whisker stimulation,"functional hyperemia; 100 μM Ba2+, TgNotch3^R169C mice",had no effect
same,Decrease of functional hyperemia,"functional hyperemia; 100 μM Ba2+, TgNotch3^WT mice",60%
same,HB-EGF-mediated increase in functional hyperemia,"functional hyperemia; Ba2+ in presence of HB-EGF, CADASIL mice",inhibited
same,"Inwardly rectifying Kir2.1 currents, block",Kir2.1 channel [3],abolished
Nc1ccncc1 [4-aminopyridine],Arteriolar dilation in response to capillary stimulation with 10 mM K+,[1]; TgNotch3^R169C CaPA,did not restore arteriolar dilation
same,Myogenic tone of arteriolar segment,[1]; TgNotch3^R169C,restores myogenic tone
"NC(=O)c1nc(Nc2ccccc2)sc1NC(=O)C1CCCCC1 [UNC3230, 5-[(Cyclohexylcarbonyl)amino]-2-(phenylamino)-thiazolecarboxamide]",Kir2.1 currents 15 min after PIP2 synthesis inhibitor,"Kir2.1 channel [3]; perforated-patch (intact cytoplasm), PIK93 300 nM, phenylarsine oxide 10 μM, UNC3230 100 nM, bath-applied",yielded similar results
COc1ccc([C@@H]2Sc3ccccc3N(CCN(C)C)C(=O)[C@@H]2OC(C)=O)cc1 [diltiazem],Arteriolar diameter and capillary RBC flux (maximal response),[4],dramatically dilated arterioles and enhanced capillary RBC flux
O=c1c2nc(Br)n([C@@H]3O[C@@H]4CO[P@@](O)(=S)O[C@H]4[C@H]3O)c2nc2[nH]c(-c3ccccc3)cn12 [Rp-8-Br-PET-cGMPS],Effect on Mg-ATP-mediated maintenance of Kir2.1 currents over 15 min,Kir2.1 channel [3],unaltered
same,Effect on peak Kir2.1 current densities at -140 mV,Kir2.1 channel [3],absence of an effect
"O=C(O)CN(CC(=O)O)c1ccccc1OCCOc1ccccc1N(CC(=O)O)CC(=O)O [BAPTA, 1,2-bis(2-aminophenoxy)ethane-N,N,N′,N′-tetraacetic acid]",Effect of simultaneous PKC and IP3R/Ca2+ block on PGE2-mediated suppression of Kir2.1 currents,Kir2.1 channel [3],lack of an effect
same,Effect on PGE2-induced reduction of Kir2.1 current,Kir2.1 channel [3]; dialyzed cECs,no effect
"CCCCCCCC(=O)OCC(COP(=O)(O)OC1C(O)C(O)C(OP(=O)(O)O)C(OP(=O)(O)O)C1O)OC(=O)CCCCCCC (stereo not drawn) [diC8-PIP2, 1,2-Dioctanoyl phosphatidylinositol 4,5-bisphosphate sodium salt]",Initial Kir2.1 currents (at t0),"Kir2.1 channel [3]; conventional whole-cell, 0 mM Mg-ATP + 10 μM diC8-PIP2 in pipette",did not elevate initial Kir2.1 currents
same,Decline of Kir2.1 currents over 15 min,Kir2.1 channel [3]; [7],largely abrogated the decline in Kir2.1 currents
same,Effect on PGE2-induced reduction of Kir2.1 current,Kir2.1 channel [3]; dialyzed cECs,completely abrogated
Nc1nc2c(ncn2[C@@H]2O[C@H](COP(=O)(O)OP(=O)(O)OP(=O)(O)O)[C@@H](O)[C@H]2O)c(=O)[nH]1 [Na-GTP],Effect on peak Kir2.1 current amplitude or kinetics of current decline,Kir2.1 channel [3]; 100 μM Na-GTP in pipette alone or with 1 mM Mg-ATP,in neither setting did Na-GTP have an effect
Cl.Cl.O=S(=O)(NCCNC/C=C/c1ccc(Br)cc1)c1cccc2cnccc12 [H-89 dihydrochloride],Effect on peak Kir2.1 current densities at -140 mV,Kir2.1 channel [3]; [5],absence of an effect
same,Effect on Mg-ATP-mediated maintenance of Kir2.1 currents over 15 min,Kir2.1 channel [3]; [6],unaltered
CC(C)Oc1ccc2c(=O)c3cc(C(=O)O)ccc3oc2c1 [AH6809],Effect on inhibitory effect of PGE2 on Kir2.1 currents,Kir2.1 channel [3],prevented
SLIGRL-NH2,Effect on capillary Kir2.1 currents,"Kir2.1 channel [3]; perforated patch, 15 min, SLIGRL-NH2 5 μM",had no effect
Nc1ncnc2c1ncn2[C@@H]1O[C@H](COP(=O)(O)OP(=O)(O)OP(O)(O)=S)[C@@H](O)[C@H]1O [Mg-ATP-γ-S],Decline of Kir2.1 currents over 15 min,Kir2.1 channel [3]; [7],failed to avert current decay
B1,Arteriolar vasodilation induced by capillary stimulation with 10 mM K+,"[1]; TgNotch3^WT CaPA, bath 8 nM soluble recombinant TIMP3","gradually attenuated and, ultimately, abolished"
